Reference: patent publication US4048334A, “Active derivatives of methylamino in therapeutic compositions and methods of use” (priority 1974, dated 1977)
Entries after “also recorded” stand apart in the source; their conditions may differ.

Assays:
catalepsy = assay: Inhibition of catalepsy (crossing of homolateral paws, prochlorperazine); type: in vivo, rat; settings: 5 mg/kg oral, 30 min before prochlorperazine i.p., 3 hours after
Description: Additional trials were carried out on rats with Compound 1 and amantadine. These trials involved catalepsy as evidenced by the crossing of the animals' homolateral paws.

[1] = tested on: neuroleptic-induced catatonia; assay: Suppression of neuroleptic-induced catatonia (curative treatment, prochlorperazine); type: in vivo, rat (male, OFA strain); settings: for catatonia score (5 rats per batch): 5 mg/kg oral
Description: b. Suppression of neuroleptic-induced catatonia
Batches of 5 male rats of the OFA strain were given 12.5 mg/kg of prochlorperazine by intraperitoneal route. Fifty-five minutes later, an oral dose in aqueous solution of the compound to be studied was administered to all the animals with the exception of the control group. The progress of the catatonia was noted following the same scale as that used in the tests described above.

[2] = tested on: reserpine-induced catatonia; assay: Suppression of reserpine-induced catatonia (curative treatment); type: in vivo, rat (male, OFA strain); design: key to catatonia score (maximum 5 per batch): number of animals (of 5) still in catatonia; max 5 per batch
Description: a. Suppression of reserpine-induced catatonia
Batches of 5 male rats of the OFA strain, weighing 150 to 200 g were given 5 mg/kg of reserpine by intraperitoneal route. One hour and 45 minutes later, namely when the animals were in a state of catatonia, an aqueous dose of the compound to be studied was administered by oral route to all the animals with the exception of the control group.
The progress of the catatonia was then noted following the scale used in the tests described hereabove.
The maximum score was thus 5 per batch which means that all the animals of the batch were considered to be still in a state of catatonia.

[3] = tested on: reserpine-induced catatonia; assay: Inhibition of reserpine-induced catatonia; type: in vivo, rat (male, OFA strain)
In short: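 Male OFA rats (150-200 g, 10 per group) dosed orally with compound in aqueous solution, then 5 mg/kg reserpine i.p. 30 min later. At 3 h, animals hung by four paws on a wire 15 cm high; catatonic if position held ≥30 s, scored out of 10 versus reserpine-only controls.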

[4] = tested on: isolated duodenum of the rat; assay: MAGNUS test: inhibition of acetylcholine spasm (cholinolytic / spasmolytic activity in vitro)
From the text: This test consists in determining the dose of acetylcholine which, when added to the bath, provokes spasm of the isolated duodenum of the rat. The next step consists in determining the dose of the compound under study which, when added to the bath 30 seconds before the acetylcholine, reduces the spasm.

electrocardiogram = assay: Effect on the electrocardiogram; type: in vivo; settings: dog, in vivo; listed as preferred compound of the invention
[5] = Spasmolytic / cholinolytic (anticholinergic) activity in vivo or unspecified; settings: at antiparkinsonian doses well below the toxic dose
[6] = SPERBER et al., J. Amer. Chem. Soc., 71, 3352 (1949); cited from earlier work
[7] = tested on: peripheral noradrenergic phenomena (arterial pressure, nictitating membrane); assay: Influence on peripheral noradrenergic phenomena (norepinephrine, arterial pressure and nictitating membrane)
[8] = tested on: reserpine-induced and neuroleptic-induced catatonia and catalepsy; assay: Central noradrenergic and dopaminergic properties (general statement); settings: in vivo
From the text: These latter properties manifest themselves by an inhibitory action on reserpine-induced and neuroleptic-induced catatonia and catalepsy.

Emetic action = type: in vivo; settings: dog, any dose
From the text: Furthermore, the compounds of the invention have no emetic action in the dog at any doses and are not cholinolytic agents.

[9] = tested on: neuroleptic-induced catatonia; assay: Inhibition of neuroleptic-induced catatonia (prochlorperazine); type: in vivo, rat (male, OFA strain)
In short: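 Male OFA rats (150–200 g, n=10 per batch) received the test compound orally in aqueous solution, with prochlorperazine given to induce catatonia. Catatonia was scored 3 h after the prochlorperazine injection using the reserpine-catatonia scoring scale. Controls received prochlorperazine alone.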

in vivo = settings: mouse, mice, oral, aqueous solution, 10 days observation

CCCC(N)(CCC)CCC [Compound 1]
inhibition of the catalepsy (catalepsy): complete inhibition of the catalepsy
catatonia score (5 rats per batch) ([1]; 1h30 after prochlorperazine): 3
catatonia score (5 rats per batch) ([1]; 2h30 after prochlorperazine): 0
catatonia score (5 rats per batch) ([1]; 3h30 after prochlorperazine): 0
catatonia score (5 rats per batch) ([1]; 3h after prochlorperazine): 0
catatonia score (5 rats per batch) ([1]; 4h after prochlorperazine): 0
catatonia score (5 rats per batch) ([1]; 5h after prochlorperazine): 0
rapidity of action against neuroleptic-induced catatonia ([1]; 5 mg/kg versus amantadine 80 mg/kg): acts against neuroleptic-induced catatonia more rapidly than does a dose of 80 mg/kg of amantadine
times more active than amantadine, neuroleptic-induced catatonia, curative treatment ([1]; versus amantadine): at least 16 times
catatonia score (maximum 5 per batch) ([2]; 2.5 mg/kg oral, 2h15 after reserpine): 3
catatonia score (maximum 5 per batch) ([2]; 2.5 mg/kg oral, 2h30 after reserpine): 2
catatonia score (maximum 5 per batch) ([2]; 2.5 mg/kg oral, 3h30 after reserpine): 0
catatonia score (maximum 5 per batch) ([2]; 2.5 mg/kg oral, 2h after reserpine): 4
catatonia score (maximum 5 per batch) ([2]; 2.5 mg/kg oral, 3h after reserpine): 0
catatonia score (maximum 5 per batch) ([2]; 2.5 mg/kg oral, 4h after reserpine): 0
catatonia score (maximum 5 per batch) ([2]; 2.5 mg/kg oral, 5h after reserpine): 0
catatonia score (maximum 5 per batch) ([2]; 5 mg/kg oral, 2h15 after reserpine): 1
catatonia score (maximum 5 per batch) ([2]; 5 mg/kg oral, 2h30 after reserpine): 0
catatonia score (maximum 5 per batch) ([2]; 5 mg/kg oral, 3h30 after reserpine): 0
catatonia score (maximum 5 per batch) ([2]; 5 mg/kg oral, 2h after reserpine): 5
catatonia score (maximum 5 per batch) ([2]; 5 mg/kg oral, 3h after reserpine): 0
catatonia score (maximum 5 per batch) ([2]; 5 mg/kg oral, 4h after reserpine): 0
catatonia score (maximum 5 per batch) ([2]; 5 mg/kg oral, 5h after reserpine): 0
rapidity of suppression of reserpine-induced catatonia ([2]; 2.5 and 5 mg/kg oral versus amantadine 80 mg/kg): suppresses reserpine-induced catatonia more rapidly than a dose of 80 mg/kg of amantadine
times more active than amantadine, reserpine-induced catatonia, curative treatment ([2]; versus amantadine): at least 32 times
Inhibition of reserpine-induced catatonia ([3]; 5 mg/kg oral, 30 min before reserpine 5 mg/kg i.p.): 4 (100% inhibition of catatonia in comparison with the controls (namely a score of 0 per studied batch))
activity (dose) compared with amantadine, reserpine-induced catatonia ([3]; versus amantadine): as active as amantadine but at a dose which is twenty times inferior to that of amantadine
spasmolytic activity in vitro [4]: very weak, in fact practically non-existent
% of inhibition of the spasm ([4]; 0.1 × 10^-3 g/ml of bath): 0%
% of inhibition of the spasm ([4]; 0.1 × 10^-4 g/ml of bath): 0%
% of inhibition of the spasm ([4]; 0.1 × 10^-5 g/ml of bath): 0%
% of inhibition of the spasm ([4]; 0.2 × 10^-2 g/ml of bath): 36%
% of inhibition of the spasm ([4]; 0.2 × 10^-6 g/ml of bath): 0%
% of inhibition of the spasm ([4]; 0.5 × 10^-2 g/ml of bath): 60%
cholinolytic activity in vitro ([4]; in comparison with atropine): virtually non-existent
effect on the electrocardiogram (electrocardiogram): does not cause any undesirable effect on the electrocardiogram; also recorded: devoid of emetic properties and of undesirable side-effects on the electrocardiogram
spasmolytic activity in vivo [5]: non-existent
spasmolytic activity and toxicity versus corresponding trialkylethylamines [6]: less spasmolytic and more toxic than the corresponding trialkylethylamines
Contractile reaction of the nictitating membrane with electric stimulation ([7]; cumulative dose 0.1 mg/kg i.v.): 15 mm
Contractile reaction of the nictitating membrane without electric stimulation ([7]; cumulative dose 0.1 mg/kg i.v.): 0 mm
Increase in arterial pressure after injection of norepinephrine ([7]; cumulative dose 0.1 mg/kg i.v.): 18 mm Hg
Contractile reaction of the nictitating membrane with electric stimulation ([7]; cumulative dose 1 mg/kg i.v.): 16 mm
Contractile reaction of the nictitating membrane without electric stimulation ([7]; cumulative dose 1 mg/kg i.v.): 0 mm
Increase in arterial pressure after injection of norepinephrine ([7]; cumulative dose 1 mg/kg i.v.): 25 mm Hg
Contractile reaction of the nictitating membrane with electric stimulation ([7]; cumulative dose 3 mg/kg i.v.): 17 mm
Contractile reaction of the nictitating membrane without electric stimulation ([7]; cumulative dose 3 mg/kg i.v.): 0 mm
Increase in arterial pressure after injection of norepinephrine ([7]; cumulative dose 3 mg/kg i.v.): 29 mm Hg
Contractile reaction of the nictitating membrane with electric stimulation ([7]; cumulative dose 5 mg/kg i.v.): 16 mm
Contractile reaction of the nictitating membrane without electric stimulation ([7]; cumulative dose 5 mg/kg i.v.): 0 mm
Increase in arterial pressure after injection of norepinephrine ([7]; cumulative dose 5 mg/kg i.v.): 25 mm Hg
Contractile reaction of the nictitating membrane with electric stimulation ([7]; cumulative dose 10 mg/kg i.v.): 12 mm
Contractile reaction of the nictitating membrane without electric stimulation ([7]; cumulative dose 10 mg/kg i.v.): 0 mm
Increase in arterial pressure after injection of norepinephrine ([7]; cumulative dose 10 mg/kg i.v.): 22 mm Hg
ganglioplegic action ([7]; in vivo): is not a ganglioplegic agent
potentiation of (peripheral) effects of norepinephrine ([7]; in vivo): does not potentiate the effects either of exogenous norepinephrine or of endogenous norepinephrine
potentiation of (peripheral) effects of norepinephrine ([7]; in vivo, listed as preferred compound of the invention): does not potentiate the peripheral effects of norepinephrine
degree of activity [8]: marked degree of activity
emetic action (Emetic action): devoid of emetic properties
Inhibition of the neuroleptic-induced catatonia ([9]; 1 mg/kg): 70%
Inhibition of the neuroleptic-induced catatonia ([9]; 5 mg/kg oral, 30 min before prochlorperazine 12.5 mg/kg i.p.): 4 (100% inhibition of catatonia in comparison with the controls (namely a score of 0 per studied batch))
activity compared with amantadine, neuroleptic-induced catatonia ([9]; versus amantadine): twenty times more active than amantadine
LD50 at 240 h (in vivo): 100 mg/kg
